Data from patent US10352947B2, “Use of markers in the identification of cardiotoxic agents and in the diagnosis and monitoring of cardiomyopathy and cardiovascular disease” (Berg LLC, priority 2012, dated 2019).
Where two headings read alike, the source gives them in different places.

Columns and labels:
CCDC47 = test system: CCDC47
Experimental: Human serum samples from individuals with type 2 diabetes mellitus (T2D) and/or cardiomyopathy treated with various drugs and appropriate control subjects (n=120 total) were acquired from a commercial source. The characteristics of the group was as follows:
The level of the cardiomyopathy protein biomarker CCDC47 were measured in the serum samples from the T2DM individuals and drug treated T2DM individuals using commercially available ELISA kits. The assays were performed using the manufactures' instructions. An ROC analysis was performed to determine if serum CCDC47 levels correlated with cardiomyopathy.

NucB1 = assay: Serum NucB1 ELISA in normal, T2DM, Rosiglitazone-treated T2DM and cardiomyopathy individuals; assay type: in vivo, human; conditions: some Rosiglitazone-treated T2DM individuals vs. the other Rosiglitazone-treated T2DM individuals; FIG. 8
Experimental: (§1) The level of protein expression of cardiotoxicity biomarkers EDIL3 and NucB1 in the serum samples from these four groups of individuals were measured by using commercially available ELISA kits.
(§2) The expression levels of the cardiotoxicity biomarkers EDIL3 and NucB1 were determined and the average expression of each biomarker for each group of individuals was calculated.

serum lipids = assay: Serum lipidomics of patients (diabetes / rosiglitazone / cardiomyopathy groups); assay type: in vivo, human
Source text: The platform methods provided herein enables integration of multi-omic signatures from human drug induced organ toxicity models. A substantive example of the platforms prowess that is under consideration here is a human drug induced cardio toxicity scenario. Human drug induced cardio toxicity models that comprises of i) Human cardiomyocyte based in vitro models of cardiotoxicity and ii) Serum samples from patients on a drug that induces cardiotoxicity. In vitro models include human cardio myocyte pretreated with fatty acids (linoleic, oleic acids and L-Carnitine) followed by treatment with a drug. The drug under consideration here is a thiazolidinedione. Cell based assays specifically measuring functional end points namely mitochondrial ATP, ROS, cell viability and mitochondrial bioenergetics were performed on in vitro models.
Proteomics was performed using the LTQ Orbitrap from Thermo Scientific as mentioned in earlier reports. Shortgun Lipidomics was performed using the TSQ vantage EMR triple Quad mass spec from thermo.
Standard procedures for merging, normalization and imputation were followed. Quality control plots for these steps are included in the accompanying folder.
Quantification of lipids that are common to serum lipid networks and pellet lipid networks. […] Lipid levels are expressed as a percent of normal lipid levels in FIG. 10B. […]

EDIL3 = assay: Serum EDIL3 ELISA in normal, T2DM, Rosiglitazone-treated T2DM and cardiomyopathy individuals; assay type: in vivo, human; conditions: some Rosiglitazone-treated T2DM individuals vs. the other Rosiglitazone-treated T2DM individuals; FIG. 7
Experimental: as §1, §2

Compound | level of CCDC47 in serum (CCDC47; human, in vivo) | NucB1 expression level in serum (NucB1) | level of CCDC47 in serum (CCDC47; subjects treated with the drug vs. subjects treated with the other two drugs (rosiglitazone, metformin, atorvastatin), ELISA, FIG. 13) | serum level of lipid PE D18:0-20:3/D18:1-20:2/D16:0-22:3 (serum lipids; diabetic subjects on rosiglitazone with clinical diagnosis of cardiomyopathy vs. diabetic alone and diabetics on rosiglitazone without cardiomyopathy, FIG. 10) | serum ethanolamine glycerophospholipid species P16:0-20:4, D18:0-18:2, P16:0-22:6, P18:0-20:4 and D18:0-20:4 (serum lipids; diabetic vs. diabetic rosiglitazone no cardiomyopathy vs. diabetic rosiglitazone cardiomyopathy) | EDIL3 expression level in serum (EDIL3)
CN(C)C(=N)N=C(N)N [metformin] | No significant difference |  |  |  |  | 
CC(C)c1c(C(=O)Nc2ccccc2)c(-c2ccccc2)c(-c2ccc(F)cc2)n1CC[C@@H](O)C[C@@H](O)CC(=O)O [atorvastatin] | No significant difference |  |  |  |  | 
CN(CCOc1ccc(CC2SC(=O)NC2=O)cc1)c1ccccn1 (stereo not shown) [rosiglitazone] |  | decreased | significant increase | significantly reduced | stratified along with the treatment with rosiglitazone | decreased
